What was measured:
[1] = Crystal; Closed cell (Static) method
[2] = Solid-liquid equilibrium temperature; details: Crystal, Closed cell (Static) method

CCCCCCCCCCCCCCCCC [heptadecane]
Details | Normal melting temperature [°C]
[1] | 22.20

[2]
Details | Solid-liquid equilibrium temperature [K]
20800 kPa | 299.75
40100 kPa | 304.05
60100 kPa | 308.3
80100 kPa | 312.4
99300 kPa | 316.5

From the NIST ThermoML archive (doi:10.1016/j.fluid.2007.04.014)
